Experimental data reported in US20180353755A1, “EPIDURAL STIMULATION FOR FACILITATION OF LOCOMOTION, POSTURE, VOLUNTARY MOVEMENT, AND RECOVERY OF AUTONOMIC, SEXUAL, VASOMOTOR, AND COGNITIVE FUNCTION AFTER NEUROLOGICAL INJURY” (NeuroRecovery Technologies, Inc., priority 2014, published 2018).

Tested on: rat with complete mid-thoracic spinal cord transection
Experiment: Locomotor behavior of rats one week after complete mid-thoracic spinal cord transection, drug therapy with or without epidural stimulation (FIG. 1)
Format: in vivo
Settings: one week post-injury; for Locomotor behavior, epidural stimulation in combination with a single drug: epidural stimulation simultaneously at L2 plus S1; for Locomotor behavior after administration of drug: no epidural stimulation
Method: FIG. 1 summarizes recent experiments in rats that were carried out to assess the effectiveness of epidural stimulation coupled with combined drug therapy in the treatment of complete spinal cord injuries. The combination of quipazine and 8-OHDPAT with simultaneous epidural stimulation at spinal sites L2 and S1 results in robust coordinated stepping as early as one week after a complete spinal cord transection. Locomotor behavior observed from a typical rat before the injury and one week after a complete mid-thoracic spinal cord transection. The amount of body weight support provided to the rat is shown in red. One week post-injury, no spontaneous stepping activity is observed. […] Sol, soleus; TA, tibialis anterior;MTP, metatarsal-phalangeal.
FIG. 1 summarizes experiments in rats that were carried out to assess the effectiveness of epidural stimulation coupled with combined drug therapy in acute treatment of complete spinal cord injury.

Row | Structure (SMILES) | Locomotor behavior, epidural stimulation in combination with a single drug | Locomotor behavior after administration of drug
1 | c1ccc2nc(N3CCNCC3)ccc2c1 [Quipazine] | enables plantar stepping | erratic movements
2 | CCCN(CCC)C1CCc2cccc(O)c2C1 (stereo not shown) [8-OHDPAT] | enables plantar stepping | erratic movements
